Reference: patent EP1614683B1, “Indazole compounds and pharmaceutical compositions for inhibiting protein kinases, and methods for their use” (priority 1999, dated 2001)
Where “and” joins values, the source holds several entries; their conditions need not be identical. Equal entries are not always repeated. Where two headings read alike, the source gives them in different places.

Columns and labels:
human FGF-R1 = human FGF-R1 (Homo sapiens, UniProt P11362, C488A/C584S/L457V); test: FGF-R spectrophotometric assay; format: biochemical; settings: Table 1; compound concentration 1 µM; read-out: FGF-P* (% inhibition)
Description: The spectrophotometric assay was carried out as described above for VEGF-R2, except for the following changes in concentration: FGF-R = 50 nM, ATP = 2 mM, and poly(E4Y1) =15 mM.

LCK tyrosine kinase = LCK tyrosine kinase (Homo sapiens, UniProt P06239, C224D/P223M); test: LCK spectrophotometric assay; format: biochemical; settings: Table 1; compound concentration 1 µM; read-out: Lck-P* (% inhibition)
Description: The spectrophotometric assay was carried out as described above for VEGF-R2, except for the following changes in concentration: LCK = 60 nM, MgCl2 = 0 mM, poly(E4Y1) = 20 mM.

[1] = tested on: lung cancer cells (line MV522); test: Cancer cell proliferation (MV522) assay; format: cell-based; settings: MV522; Table 1; read-out: MV522 IC50
How it was run: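 MTT reduction read-out was taken 72 h after addition of test agents, with no prior serum starvation. Cells were plated beforehand at two thousand per well in RPMI1640 containing 10% FBS and 2 mM glutamine and allowed one day to adhere.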

[2] = target: T1, unphosphorylated VEGF-R2Δ50 (Homo sapiens, UniProt P35968, DEL940-989/E990V); test: biochemical
[3] = target: phosphorylated VEGF-R2Δ50 (Homo sapiens, UniProt P35968, DEL940-989/E990V); test: biochemical; settings: for inhibition at 0.05 µM: read-out: FLVK -P** (% inhibition); for inhibition at 1 µM: read-out: FLVK-P* (% inhibition)
CDK2/Cyclin A complex = CDK2/Cyclin A complex (Homo sapiens, UniProt P24941); test: CDK2/Cyclin A assay ([32P]ATP incorporation into Rb fragment); format: biochemical; settings: read-out: CDK2 * (% inhibition)
CDK1 = CDK1 (Homo sapiens, UniProt P06493); test: CDK1 assay (Table 3); format: biochemical; settings: Table 3, compound concentration 1 µM, NI = no significant inhibition; for inhibition at 1 µM: read-out: CDK1* (% inhibition)
CDK4/Cyclin D3 complex = CDK4/Cyclin D3 complex (Homo sapiens, UniProt P11802); test: biochemical; settings: read-out: CDK4 * (% inhibition)
[4] = tested on: human umbilical vein endothelial cells (HUVEC); test: HUVEC proliferation assay (VEGF-stimulated, MTT); format: cell-based; settings: Homo sapiens, HUVEC, Table 1
in vitro = in vitro ADME, human; settings: 2 h
How it was run: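 HLM diluted to 5 mg/mL in 100 mM KPO4, preincubated 10 min at 37 °C with NADPH-regenerating system. Compound (5 µM final) incubated at 37 °C in triplicate, sampled at 0 and 2 h into ice-cold acetonitrile, then LC-MS analysis.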

human CHK1 (FL-CHK1) = target: T2, human CHK1 (FL-CHK1) (Homo sapiens, UniProt O14757); test: CHK1 coupled spectrophotometric assay; format: biochemical; settings: read-out: CHK1* (% inhibition)
T2 construct: C-terminally His-tagged full-length human CHK1 (FL-CHK1) was expressed using the baculovirus/insect cell system; made in house; host or cells: baculovirus/insect cell system
T2 sequence (O14757 1-476): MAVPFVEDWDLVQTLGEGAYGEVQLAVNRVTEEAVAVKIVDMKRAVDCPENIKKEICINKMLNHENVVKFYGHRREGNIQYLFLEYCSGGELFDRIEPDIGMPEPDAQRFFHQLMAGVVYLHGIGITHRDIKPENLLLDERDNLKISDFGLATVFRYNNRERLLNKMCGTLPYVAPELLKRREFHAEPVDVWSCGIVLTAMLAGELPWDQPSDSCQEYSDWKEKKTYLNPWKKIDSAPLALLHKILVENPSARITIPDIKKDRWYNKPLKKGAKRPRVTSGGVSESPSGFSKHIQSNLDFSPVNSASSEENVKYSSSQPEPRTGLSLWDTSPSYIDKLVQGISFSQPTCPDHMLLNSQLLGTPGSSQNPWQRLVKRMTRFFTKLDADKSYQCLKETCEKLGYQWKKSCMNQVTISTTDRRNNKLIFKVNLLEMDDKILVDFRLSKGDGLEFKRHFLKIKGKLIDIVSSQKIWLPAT
How it was run: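 His-tagged full-length human CHK1 from baculovirus/insect cells, 10 nM, phosphorylating Syntide-2. ADP formation coupled via PK/LDH with PEP to NADH oxidation, followed as absorbance decrease at 340 nm. Ki from initial rates at varying compound concentrations.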

[5] = tested on: VEGF dependent retinal vascular development; test: In vivo assay of retinal vascular development in neonatal rats; parameters: species or system rat; settings: vehicle PEG/water 70:30
How it was run: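 Neonatal rats given compound by intravitreal injection, vehicle usually 50% PEG 400/50% 300 mM sucrose, with vehicle in contralateral eye. Retinas removed six days later, ADPase-stained and flat-mounted; stained vessel area quantified by imaging and expressed as percent regression versus vehicle eye.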

[6] = target: T1, unphosphorylated VEGF-R2Δ50; settings: Table 1; for FLVK ** (% inhibition): compound concentration 50 nM
human FAK (FAKcd409) = target: T3, human FAK (FAKcd409) (Homo sapiens, UniProt Q05397, P410T); test: FAK fluorescence polarization assay; format: biochemical; settings: read-out: % Inhibition @ 1 µM FAK
T3 construct: comprises residues methionine 409 to glutamate 689; made in house; host or cells: baculovirus vector expression system (insect cells)
Description: FAK Construct for Assay. The catalytic domain of human FAK (FAKcd409) was expressed using the baculovirus vector expression system. […] The protein was purified using classical chromatography techniques.
FAK HTS utilized the fluorescence polarization assay provided by LJL Biosystems. The kinase reaction contained: 100mM Hepes pH 7.5, 10mM MgCl2, 1mM DTT, 1mM ATP, and 1mg/ml poly Glu-Tyr (4: 1). The reaction is initiated by the addition of 5nM FAKcd409. The reaction is terminated by the addition of EDTA followed by addition of fluor-labelled peptide and anti-phosphotyrosine antibody, both provided by LJL Biosystems. Inhibition results are read on a Analyst (LJL) detector.

in vivo = settings: mouse, plasma, pH 2.3
[7] = tested on: VEGF dependent retinal neovascularization; test: Neonatal rat model of retinopathy of prematurity; format: in vivo; settings: Model ROP, intravitreal, vehicle PEG/water 70:30
[8] = + albumin, read-out: HUVEC + albumin IC50
[9] = human liver microsomes, 5 µM test compound, 37 °C

Sequence of CDK4/Cyclin D3 complex (P11802 whole entry): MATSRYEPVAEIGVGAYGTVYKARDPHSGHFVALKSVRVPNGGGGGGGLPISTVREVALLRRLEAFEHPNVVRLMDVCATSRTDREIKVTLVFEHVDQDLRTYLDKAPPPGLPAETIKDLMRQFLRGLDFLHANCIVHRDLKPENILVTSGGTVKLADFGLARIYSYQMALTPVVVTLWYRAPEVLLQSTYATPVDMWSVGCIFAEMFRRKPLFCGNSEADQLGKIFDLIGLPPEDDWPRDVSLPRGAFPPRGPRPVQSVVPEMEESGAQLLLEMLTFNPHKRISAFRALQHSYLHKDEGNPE
Sequence of CDK4/Cyclin D3 complex (P30281 whole entry partner): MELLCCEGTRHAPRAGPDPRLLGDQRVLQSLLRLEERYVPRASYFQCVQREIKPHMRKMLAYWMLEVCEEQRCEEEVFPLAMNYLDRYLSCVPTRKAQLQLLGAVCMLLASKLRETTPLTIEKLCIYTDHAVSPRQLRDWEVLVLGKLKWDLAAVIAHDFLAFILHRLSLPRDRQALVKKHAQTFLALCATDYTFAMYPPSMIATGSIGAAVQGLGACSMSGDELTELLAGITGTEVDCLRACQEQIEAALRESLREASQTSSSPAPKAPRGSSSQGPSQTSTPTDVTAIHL
Sequence of CDK1 (P06493 whole entry, species assumed): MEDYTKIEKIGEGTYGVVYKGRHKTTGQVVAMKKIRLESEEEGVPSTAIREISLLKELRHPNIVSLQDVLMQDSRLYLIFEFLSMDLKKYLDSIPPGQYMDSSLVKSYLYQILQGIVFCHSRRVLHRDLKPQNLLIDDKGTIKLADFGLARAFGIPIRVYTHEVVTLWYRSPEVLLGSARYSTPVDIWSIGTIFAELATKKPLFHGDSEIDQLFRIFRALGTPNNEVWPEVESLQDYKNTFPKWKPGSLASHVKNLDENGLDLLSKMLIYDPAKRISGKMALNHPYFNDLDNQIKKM
Sequence of CDK1 (P14635 whole entry partner, species assumed): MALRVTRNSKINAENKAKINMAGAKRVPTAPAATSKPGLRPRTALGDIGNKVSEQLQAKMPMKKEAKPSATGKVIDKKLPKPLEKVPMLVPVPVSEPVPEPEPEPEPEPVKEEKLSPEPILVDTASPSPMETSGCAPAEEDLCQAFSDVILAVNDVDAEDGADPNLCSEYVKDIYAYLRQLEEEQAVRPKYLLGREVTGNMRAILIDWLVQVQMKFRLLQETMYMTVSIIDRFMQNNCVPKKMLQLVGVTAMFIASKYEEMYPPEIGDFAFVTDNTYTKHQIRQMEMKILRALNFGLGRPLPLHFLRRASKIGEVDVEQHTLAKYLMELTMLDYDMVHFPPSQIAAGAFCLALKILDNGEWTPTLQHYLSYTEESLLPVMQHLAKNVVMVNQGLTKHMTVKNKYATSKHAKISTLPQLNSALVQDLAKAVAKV
Sequence of human FGF-R1 (P11362 456-766 L457V/C488A/C584S): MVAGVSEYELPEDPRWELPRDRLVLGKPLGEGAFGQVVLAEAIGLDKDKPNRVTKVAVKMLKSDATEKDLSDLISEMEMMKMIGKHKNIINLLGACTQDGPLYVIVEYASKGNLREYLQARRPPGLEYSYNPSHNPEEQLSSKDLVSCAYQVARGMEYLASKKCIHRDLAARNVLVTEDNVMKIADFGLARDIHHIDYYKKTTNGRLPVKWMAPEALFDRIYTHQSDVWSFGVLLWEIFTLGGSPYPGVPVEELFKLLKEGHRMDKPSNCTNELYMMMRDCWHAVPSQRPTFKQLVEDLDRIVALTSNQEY
Sequence of phosphorylated VEGF-R2Δ50 (P35968 with tags, fused parts or gaps DEL940-989/E990V limits assumed): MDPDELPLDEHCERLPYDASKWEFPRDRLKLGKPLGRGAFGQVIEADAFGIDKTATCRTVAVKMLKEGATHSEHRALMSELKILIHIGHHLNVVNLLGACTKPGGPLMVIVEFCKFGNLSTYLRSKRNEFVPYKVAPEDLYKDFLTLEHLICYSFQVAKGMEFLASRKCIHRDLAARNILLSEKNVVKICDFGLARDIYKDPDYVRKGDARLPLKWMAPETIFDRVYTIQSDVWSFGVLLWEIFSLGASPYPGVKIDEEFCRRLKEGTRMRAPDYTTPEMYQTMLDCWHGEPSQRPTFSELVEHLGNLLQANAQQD
T1 sequence (P35968 with tags, fused parts or gaps DEL940-989/E990V limits assumed): as above
Sequence of LCK tyrosine kinase (P06239 223-509 P223M/C224D): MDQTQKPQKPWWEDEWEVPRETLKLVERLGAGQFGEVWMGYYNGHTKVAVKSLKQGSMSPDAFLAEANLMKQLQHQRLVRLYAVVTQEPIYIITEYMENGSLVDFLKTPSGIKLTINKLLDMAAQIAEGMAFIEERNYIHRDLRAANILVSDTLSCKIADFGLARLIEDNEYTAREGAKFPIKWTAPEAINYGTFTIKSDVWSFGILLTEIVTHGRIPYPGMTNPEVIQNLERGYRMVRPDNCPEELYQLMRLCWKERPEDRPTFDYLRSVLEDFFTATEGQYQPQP
T3 sequence (Q05397 409-689 P410T): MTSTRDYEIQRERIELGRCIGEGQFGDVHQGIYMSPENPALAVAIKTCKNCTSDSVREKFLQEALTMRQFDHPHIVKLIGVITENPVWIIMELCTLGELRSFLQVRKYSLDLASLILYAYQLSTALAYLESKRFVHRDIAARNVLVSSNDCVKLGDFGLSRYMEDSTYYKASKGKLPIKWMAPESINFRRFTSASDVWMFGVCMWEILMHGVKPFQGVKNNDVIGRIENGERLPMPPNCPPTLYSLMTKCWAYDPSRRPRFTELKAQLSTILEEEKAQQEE

CC(=O)NC(C(=O)Nc1cccc(C(=O)c2ccc3c(/C=C/c4ccccc4)n[nH]c3c2)c1)c1ccccc1 (stereo not shown) [19(i), 6-[3-(2-acetamido-2-phenylacetamido)benzoyl]-3-E-styryl-1H-indazole]
inhibition at 1 µM (human FGF-R1): 88% | inhibition at 1 µM (LCK tyrosine kinase): 36% | IC50 [1]: 3800 nM | Ki [2]: 0.72 nM | Ki [3]: 4.7 nM

Oc1cccc(-c2ccc3c(/C=C/c4ccccc4)n[nH]c3c2)c1 [Reference Example 28(a), 6-(3-hydrophenyl)-3-E-styryl-1H-indazole]
inhibition at 1 µM (CDK2/Cyclin A complex): 75% | inhibition at 1 µM (CDK1): 77% | inhibition at 1 µM ([2]; read-out: FLVK* (% inhibition)): 84% | inhibition at 1 µM (CDK4/Cyclin D3 complex): 79%

C/C=C/C(=O)Nc1cccc(C(=O)c2ccc3c(/C=C/c4ccccn4)n[nH]c3c2)c1 [Reference Example 41(c), 6-(3-crotonylamidobenzoyl)-3-E-[2-(pyridio-2-yl)ethenyl]-1H-indazole]
inhibition at 1 µM (human FGF-R1): 77% | inhibition at 1 µM (LCK tyrosine kinase): 36% | IC50 [4, 8]: 5.3 nM | IC50 ([4]; read-out: HUVEC IC50): 0.4 nM | % remain (HLM, 2 h) (in vitro; [9]): 68% | inhibition at 0.05 µM [3]: 83%

CCc1cc(O)ccc1-c1ccc2c(-c3nc4ccccc4[nH]3)n[nH]c2c1 [24(e), 3-1H-Benzoimidazol-2-yl-6-(2-ethyl-4-hydroxyphenyl)-1H-indazole]
inhibition at 1 µM (human CHK1 (FL-CHK1); Table 2, compound concentration 1 µM, NI = no significant inhibition): 75% | inhibition at 1 µM [3]: 52%

O=C(Nc1ccc(N2CCNCC2)c(C(F)(F)F)c1)c1ccccc1Sc1ccc2c(/C=C/c3ccccc3)n[nH]c2c1 [Reference Example 38(b), 6-[2-((4-piperizin-1-yl-3-trifluoromethylphenyl)carbamoyl)phenylsulfanyl]-3-E-(2-styryl)-1H-indazole]
IC50 ([4]; read-out: HUVEC IC50): 79 nM | inhibition at 0.05 µM [3]: 72%

O=C(NC1CC1)c1ccccc1Sc1ccc2c(/C=C/c3ccccn3)n[nH]c2c1 [Reference Example 33(e), 6-[2-(cyclopropylcarbamoyl)phenylsulfanyl]-3-E-[2-(pyridin-2-yl)ethenyl]-1H--1H-indazole]
inhibition at 1 µM (human FGF-R1): 68% | inhibition at 1 µM (LCK tyrosine kinase): 2% | IC50 [4, 8]: 5 nM | IC50 ([4]; read-out: HUVEC IC50): 0.46 nM | % remain (HLM, 2 h) (in vitro; [9]): 54% | % Inhibition ([5]; Model P8, intravitreal, 5 mg/ml): 22% | inhibition at 0.05 µM [3]: 70%

6-[2-((4-Aminobenzyl)methylcarbamoyl)phenylsulfanyl]-3-E-[2-(pyridin-2-yl)ethenyl]-1H-indazole [Reference Example 35(I)]
% remain (HLM, 2 h) (in vitro; human, microsomes, 5 µM): 5% | FLVK ** (% inhibition) ([6]; listed as 35(l), 0.05 µM): 100% and 99%

CNC(=O)c1ccccc1Sc1ccc2c(/C=C/c3ccccn3)n[nH]c2c1 [Reference Example 33(a), 6-[2-(methylcarbamoyl)phenylsulfanyl]-3-E[2-(pyridin-2-yl)ethenyl]indazole]
inhibition at 1 µM (human FAK (FAKcd409)): 12% | % remain (HLM, 2 h) (in vitro; human, microsomes, 5 µM): 29% | AUC (in vivo; ip, 25 mg/kg): 13800 ng·h/mL | AUC (in vivo; po, 50 mg/kg): 19100 ng·h/mL | inhibition at 0.05 µM [3]: 42% | inhibition at 1 µM (CDK4/Cyclin D3 complex): 7%

Oc1ccc(-c2ccc3c(-c4nc5ccccc5[nH]4)n[nH]c3c2)c(O)c1 [24(f), 3-1H-Benzoimidazol-2-yl-6-(2,4-dihydroxyphenyl)-1H-indazole]
inhibition at 1 µM (human CHK1 (FL-CHK1)): 97% | inhibition at 1 µM [3]: 89%

OCCOc1cc(-c2ccc3c(/C=C/c4ccccc4)n[nH]c3c2)ccc1O [Reference Example 27(i), 6-[3-(2-hydroxyethoxy)-4-hydroxyphenyl]-3-E-styryl-1H-indazole]
inhibition at 1 µM (CDK2/Cyclin A complex): 73% | inhibition at 1 µM (CDK1): 85% | inhibition at 1 µM (CDK4/Cyclin D3 complex): 92%

O=C(Nc1cccc(C(=O)c2ccc3c(/C=C/c4ccccn4)n[nH]c3c2)c1)c1ccccc1 [Reference Example 42(a), 6-(3-Benzamidobenzoyl)-3-E-[2-(pyridin-2-yl)ethenyl]-1H-indazole]
IC50 [4, 8]: […] | IC50 [1]: 5500 nM | % remain (HLM, 2 h) (in vitro; [9]): 92% | % Inhibition ([5]; Model P6-P10, IP*): 61% | % Inhibition ([5]; Model P9, intravitreal, 10 mg/ml): 55% | % Inhibition ([7]; 1 mg/ml): 1% | Initial Evaluation ([7]; 1 mg/ml): + (one plus being detectable regression judged to be approximately 25 percent or less) | % Inhibition ([7]; 10 mg/ml): 23% | inhibition at 0.05 µM [3]: 79%

O=C(Nc1cccc(C(=O)c2ccc3c(/C=N/n4cnnc4)n[nH]c3c2)c1)c1ccccc1 [Example 42(e), 6-(3-benzamidobenzoyl)-3-E-[N-(4H-1,2,4-triazol-4-yl)iminomethyl]-1H-indazole]
Ki ([6]; read-out: FLVK ** (Ki)): 1.1 nM

O=C(Cc1cc(F)cc(F)c1)Nc1cccc(C(=O)c2ccc3c(/C=C/c4ccccn4)n[nH]c3c2)c1 [Reference Example 41(f), 6-[3-(3,5-difluorophenylacetamido)benzoyl]-3-E-[2-(pyridin-2-yl)ethenyl]-1H-indazole]
inhibition at 1 µM (human FGF-R1): 92% | inhibition at 1 µM (LCK tyrosine kinase): 65% | % remain (HLM, 2 h) (in vitro; [9]): 59% | inhibition at 0.05 µM [3]: 84%

O=C(Nc1ccc(O)cc1)c1ccc2c(-c3nc4ccc5ccccc5c4[nH]3)n[nH]c2c1 [Example 54(e), 3-[1H-Naphtho(1,2-d)imidazol-2-yl]-N-(4-hydroxyphenyl)-1H-indazole-6-carboxamide]
CDK1* (% inhibition) (CDK1): Nl @ 1µM

Oc1ccc(-c2ccc3c(/C=C/c4ccccc4)n[nH]c3c2)cc1O [Reference Example 28(d), 6-(3,4-dihydroxyphenyl)-3-E-styryl-1H-indazole]
inhibition at 1 µM (CDK2/Cyclin A complex): 66% | inhibition at 1 µM (CDK1): 93% | inhibition at 1 µM (CDK4/Cyclin D3 complex): 87%

NNC(=O)c1ccccc1Sc1ccc2c(C=Cc3ccccn3)n[nH]c2c1 [35(il)]
FLVK ** (% inhibition) [6]: 44%
